According to patent US10300109B2, “Peptidomimetic macrocycles” (AILERON Therapeutics, Inc., priority 2009, dated 2019):
Like-named read-outs stand apart in the source and are kept apart here. Where a SMILES comes first, the peptide text is derived from it. Bridges are numbered along the chain shown (N, C = ends). [ ]: non-standard residue; d: D form. S5 = C=CCCC[C@](C)(N)C(=O)O

Molecular target: T1, Beta-Catenin (aa 134-668) (Homo sapiens, UniProt P35222)
T1 construct: Beta-Catenin (aa 134-668, 59 KD)
T1 sequence (P35222 134-668): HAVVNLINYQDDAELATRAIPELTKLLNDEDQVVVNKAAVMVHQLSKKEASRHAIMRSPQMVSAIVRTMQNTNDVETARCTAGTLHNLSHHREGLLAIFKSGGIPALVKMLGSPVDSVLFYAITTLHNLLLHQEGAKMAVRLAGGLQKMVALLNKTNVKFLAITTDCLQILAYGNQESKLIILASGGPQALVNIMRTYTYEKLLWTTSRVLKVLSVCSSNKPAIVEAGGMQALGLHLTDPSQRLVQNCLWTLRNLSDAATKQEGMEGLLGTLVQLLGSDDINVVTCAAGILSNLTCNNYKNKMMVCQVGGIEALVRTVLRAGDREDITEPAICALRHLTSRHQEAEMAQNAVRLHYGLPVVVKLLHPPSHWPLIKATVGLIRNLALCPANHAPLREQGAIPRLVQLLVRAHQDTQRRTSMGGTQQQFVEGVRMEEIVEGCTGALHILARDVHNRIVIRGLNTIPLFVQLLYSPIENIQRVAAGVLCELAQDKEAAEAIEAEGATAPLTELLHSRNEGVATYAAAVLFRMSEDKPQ
Assay: TCF/Beta-Catenin competitive fluorescence polarization assay
Assay type: binding
Settings: competition with FAM-labelled linear probe for 6x His-tagged Beta-Catenin, room temperature, three hours
Experimental: The following experiments are performed at room temperature unless otherwise noted. First, an assay buffer is prepared composed of 25 mM Tris-Hcl pH 7.5, 200 mM Sodium Chloride, and 5 mM CHAPS. Next, 1M DTT is added to assay buffer to a final concentration of 2 mM. […] Forty μl of this protein stock is added to all but six wells of a 96 well plate (which will serve as the free peptide and Blank). Test competitor peptides are diluted from 1 mM DMSO stocks to 2× working stocks in assay buffer. Further dilutions are made in assay buffer-DMSO as to maintain a constant DMSO concentration in all wells. […] As a benchmark, a linear, non-crosslinked peptide competitor is prepared as above but with a working concentration range of 13-0.7 μM. Fifty μl of the competitor 2× stocks are added to the 40 μl of protein solution previously transferred into the assay 96 well plate. Next, a 10× stock of the fluorescent probe is prepared. The probe is identical to the linear benchmark peptide except for the n-terminal conjugation of a FAM flourophore with Beta-Alanine spacer. A 1 mM DMSO stock of the probe is serially diluted to a final concentration of 25 nM (10×) and 10 μl of this stock is added to all wells except for those that will serve as the blank. The assay plate is stored in the dark and the reaction is allowed to run at room temperature for three hours. The reaction is then read on a Biotek Synergy 2 with the following settings: 100 ms delay, 40 measurements per well, with excitation filters of […], and emission filters of […]. Data is then analyzed in Graphpad Prism.

[1] = read-out: Binding Activity: IC50

IC50 [1] [nM] | SMILES | IC50 (Binding Activity: IC50 (nM)) [nM]
 | CC[C@H](C)[C@H](NC(=O)[C@H](CC(C)C)NC(=O)[C@H](CCC(=O)O)NC(=O)[C@H](CC(=O)O)NC(=O)[C@H](CC(N)=O)NC(=O)[C@H](C)NC(=O)CNC(=O)[C@H](CC(C)C)NC(C)=O)C(=O)N[C@@H](CO)C(=O)N[C@@H](Cc1ccccc1)C(=O)N[C@@H](CCCCN)C(=O)N[C@@]1(C)CCCC=CCCC[C@@](C)(C(=O)N[C@@H](CCC(=O)O)C(=O)N[C@@H](CCC(=O)O)C(=O)N[C@@H](CCCCN)C(=O)N[C@@H](CO)C(=O)N[C@@H](CO)C(=O)N[C@@H](CC(N)=O)C(=O)N[C@@H](CC(N)=O)C(=O)N[C@@H](CO)C(=O)N[C@@H](CO)C(=O)N[C@@H](C)C(=O)N[C@@H](CCC(=O)O)C(=O)N[C@@H](CCCNC(=N)N)C(=O)N[C@@H](CC(=O)O)C(=O)N[C@@H](CC(C)C)C(=O)N[C@@H](C)C(=O)N[C@@H](CC(=O)O)C(=O)N[C@H](C(=O)N[C@@H](CCCCN)C(=O)N[C@@H](CO)C(=O)N[C@@H](CO)C(=O)N[C@@H](CC(C)C)C(=O)N[C@H](C(N)=O)C(C)C)C(C)C)NC(=O)[C@H](CCC(=O)O)NC(=O)CNC(=O)[C@H](CCC(=O)O)NC1=O [SP27] (Ac-LGANDELISFK[S5]EGE[S5]EEKSSNNSSAERDLADVKSSLV-NH2; staple 12-16) | 158
158 | CC[C@H](C)[C@H](NC(=O)[C@H](CC(C)C)NC(=O)[C@H](CCC(=O)O)NC(=O)[C@H](CC(=O)O)NC(=O)[C@H](CC(N)=O)NC(=O)[C@H](C)NC(=O)CNC(=O)[C@H](CC(C)C)NC(C)=O)C(=O)N[C@@H](CO)C(=O)N[C@@H](Cc1ccccc1)C(=O)N[C@@H](CCCCN)C(=O)N[C@@H](CC(=O)O)C(=O)N[C@@H](CCC(=O)O)C(=O)NCC(=O)N[C@@]1(C)CCCC=CCCC[C@@](C)(C(=O)N[C@@H](CO)C(=O)N[C@@H](CO)C(=O)N[C@@H](CC(N)=O)C(=O)N[C@@H](CC(N)=O)C(=O)N[C@@H](CO)C(=O)N[C@@H](CO)C(=O)N[C@@H](C)C(=O)N[C@@H](CCC(=O)O)C(=O)N[C@@H](CCCNC(=N)N)C(=O)N[C@@H](CC(=O)O)C(=O)N[C@@H](CC(C)C)C(=O)N[C@@H](C)C(=O)N[C@@H](CC(=O)O)C(=O)N[C@H](C(=O)N[C@@H](CCCCN)C(=O)N[C@@H](CO)C(=O)N[C@@H](CO)C(=O)N[C@@H](CC(C)C)C(=O)N[C@H](C(N)=O)C(C)C)C(C)C)NC(=O)[C@H](CCC(=O)O)NC(=O)[C@H](CCC(=O)O)NC(=O)[C@H](CCC(N)=O)NC1=O [SP28, Ac-LGANDELISFKDEG$QEE$SSNNSSAERDLADVKSSLV-NH2] (Ac-LGANDELISFKDEG[S5]QEE[S5]SSNNSSAERDLADVKSSLV-NH2; staple 15-19) | 
84900 | CC(=O)N[C@@H](CO)C(=O)N[C@@H](C)C(=O)N[C@@H](CCC(=O)O)C(=O)N[C@@H](CCCNC(=N)N)C(=O)N[C@@H](CC(=O)O)C(=O)N[C@@H](CC(C)C)C(=O)N[C@@H](C)C(=O)N[C@@H](CC(=O)O)C(=O)N[C@H](C(=O)N[C@@H](CCCCN)C(=O)N[C@@]1(C)CCCC=CCCC[C@@](C)(C(=O)N[C@@H](CCC(=O)O)C(=O)N[C@@H](CO)C(=O)N[C@@H](CCC(=O)O)C(=O)N[C@@H](CCCCN)C(=O)N[C@@H](CCCNC(=N)N)C(N)=O)NC(=O)[C@H](C(C)C)NC(=O)[C@H](CC(C)C)NC(=O)[C@H](CO)NC1=O)C(C)C [SP12, Ac-SAERDLADVK$SLV$ESEKR-NH2] (Ac-SAERDLADVK[S5]SLV[S5]ESEKR-NH2; staple 11-15) | 
